Our source for the T/C values is PubChem BioAssay AID248 (DTP/NCI, 2004).

Values joined by “and” are separate entries in the source; they are usually repeats but may differ in a detail not shown here. Equal entries are not always repeated. Toxic doses and inconclusive results are not listed.

The test concerns L1210 leukemia ip in BDF1 mice, survival T/C. The test is described as follows: NCI In Vivo Anticancer Drug Screen. Data for tumor model L1210 Leukemia (intraperitoneal) in B6D2F1 (BDF1) mice. Conditions: endpoint: mean survival time, higher = longer survival. The gist of the method:
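Antitumor effect is assessed in tumor-bearing animals. Survival in the compound arm is compared with a vehicle-dosed control arm and expressed as their quotient.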

Where [1] appears, read: dose: 100.0 mg/kg/injection, schedule: Q01DX001 (ip), vehicle: other.
Where [2] appears, read: dose: 200.0 mg/kg/injection, schedule: Q01DX001 (ip), vehicle: other.
Where [3] appears, read: dose: 400.0 mg/kg/injection, schedule: Q01DX001 (ip), vehicle: other.
Where [4] appears, read: dose: 100.0 mg/kg/injection, schedule: Q01DX001 (ip), vehicle: Klucel (hydroxypropylcellulose) (HPC).
The mark [5] stands for this setting: dose: 200.0 mg/kg/injection, schedule: Q01DX001 (ip), vehicle: Klucel (hydroxypropylcellulose) (HPC).
[6] abbreviates: dose: 400.0 mg/kg/injection, schedule: Q01DX001 (ip), vehicle: Klucel (hydroxypropylcellulose) (HPC).
The mark [7] stands for this setting: dose: 100.0 mg/kg/injection, schedule: Q04DX003 (ip), vehicle: saline.
Where [8] appears, read: dose: 200.0 mg/kg/injection, schedule: Q04DX003 (ip), vehicle: saline.
The mark [9] stands for this setting: dose: 400.0 mg/kg/injection, schedule: Q04DX003 (ip), vehicle: saline.
The mark [10] stands for this setting: dose: 100.0 mg/kg/injection, schedule: Q04DX003 (ip), vehicle: saline with Tween-80.
Where [11] appears, read: dose: 200.0 mg/kg/injection, schedule: Q04DX003 (ip), vehicle: saline with Tween-80.
Where [12] appears, read: dose: 400.0 mg/kg/injection, schedule: Q04DX003 (ip), vehicle: saline with Tween-80.
Where [13] appears, read: dose: 100.0 mg/kg/injection, schedule: Q01DX009 (ip), vehicle: Klucel (hydroxypropylcellulose) (HPC).
Where [14] appears, read: dose: 200.0 mg/kg/injection, schedule: Q01DX009 (ip), vehicle: Klucel (hydroxypropylcellulose) (HPC).
[15] abbreviates: dose: 400.0 mg/kg/injection, schedule: Q01DX009 (ip), vehicle: Klucel (hydroxypropylcellulose) (HPC).

In the case of `Oc1c(Cl)cc(Cl)cc1/C=N/Nc1nnc(N/N=C/c2cc(Cl)cc(Cl)c2O)c2ccccc12`, the T/C is, setting by setting: (dose: 50.0 mg/kg/injection, schedule: Q01DX001 (ip), vehicle: other) 111 % of control; under setting [1], 101 % of control; under setting [2], 102 % of control; under setting [3], 102 % of control.
Turning to `CN1CNC(C=O)(CCc2ccc(Cl)cc2)C1` (stereo not drawn), the T/C under setting [2] is 87 % of control and the T/C under setting [3] is 98 % of control.
With `COc1ccc(OC)c([N+](=O)[O-])c1C=O`, the T/C by setting is: under setting [1], 92 % of control; under setting [2], 90 % of control; under setting [3], 90 % of control.
With `Cc1cccc(C)c1/[N+]([O-])=C/c1ccc(Cl)cc1`, the T/C runs as follows: under setting [4], 101 % of control; under setting [5], 98 % of control; under setting [6], 108 % of control.
Take `c1ccc2c(c1)ccc1c[s+]ccc12`: the T/C (dose: 100.0 mg/kg/injection, schedule: Q04DX003 (ip), vehicle: acetone) was 103 % of control and the T/C (dose: 200.0 mg/kg/injection, schedule: Q04DX003 (ip), vehicle: acetone) was 103 % of control.
On to `CCC(C)CNC(C)=O` (stereo not drawn), for which the T/C reads like this: under setting [7], 109 % of control; under setting [8], 106 % of control; under setting [9], 109 % of control.
In the case of `N=c1c2[nH]cnc2ncn1O`, the T/C by setting is: (dose: 100.0 mg/kg/injection, schedule: Q01DX001 (ip), vehicle: carboxymethylcellulose (CMC)) 89 % of control; (dose: 200.0 mg/kg/injection, schedule: Q01DX001 (ip), vehicle: carboxymethylcellulose (CMC)) 94 % of control; (dose: 400.0 mg/kg/injection, schedule: Q01DX001 (ip), vehicle: carboxymethylcellulose (CMC)) 100 % of control.
For `COC(=O)c1ccccc1NC(=O)CCl`, the T/C was 99 % of control under setting [10] and 91 % of control under setting [11].
`C[n+]1cccc(CNC(=O)COc2ccc(Cl)c(Cl)c2)c1`: the T/C runs as follows: (dose: 25.0 mg/kg/injection, schedule: Q01DX001 (ip), vehicle: saline) 106 % of control; (dose: 50.0 mg/kg/injection, schedule: Q01DX001 (ip), vehicle: saline) 103 % of control; (dose: 100.0 mg/kg/injection, schedule: Q01DX001 (ip), vehicle: saline) 97 % of control and 109 % of control.
As for `COc1cc(/C=N\N=C\c2ccc(O)c(OC)c2)ccc1O`, the T/C under setting [10] was 100 % of control, the T/C under setting [11] is 94 % of control and the T/C under setting [12] is 93 % of control.
With `CN(C)C(=S)OCC(C)(C)C`, the T/C reads like this: under setting [10], 113 % of control; under setting [11], 100 % of control; under setting [12], 97 % of control.
For `CN1C=c2c3c(ccc2=C2C=CC4C=C5OCOC5=CC4=C21)OCO3` (stereo not drawn), the T/C (dose: 2.0 mg/kg/injection, schedule: Q01DX015 (ip), vehicle: saline) was 97 % of control; the T/C (dose: 4.0 mg/kg/injection, schedule: Q01DX015 (ip), vehicle: saline) is 91 % of control; the T/C (dose: 5.0 mg/kg/injection, schedule: Q01DX001 (ip), vehicle: saline) is 96 % of control; the T/C (dose: 6.25 mg/kg/injection, schedule: Q04DX003 (ip), vehicle: saline) is 92 % of control; the T/C (dose: 7.5 mg/kg/injection, schedule: Q01DX009 (ip), vehicle: saline) was 97 % of control; the T/C (dose: 8.0 mg/kg/injection, schedule: Q01DX015 (ip), vehicle: saline) was 92 % of control. The T/C is 96 % of control (dose: 10.0 mg/kg/injection, schedule: Q01DX001 (ip), vehicle: saline); 88 % of control (dose: 12.5 mg/kg/injection, schedule: Q04DX003 (ip), vehicle: saline); 100 % of control (dose: 15.0 mg/kg/injection, schedule: Q01DX009 (ip), vehicle: saline); 100 % of control (dose: 16.0 mg/kg/injection, schedule: Q01DX015 (ip), vehicle: saline); 94 % of control (dose: 20.0 mg/kg/injection, schedule: Q01DX001 (ip), vehicle: saline); 95 % of control and 90 % of control (dose: 25.0 mg/kg/injection, schedule: Q04DX003 (ip), vehicle: saline). Also, the T/C (dose: 30.0 mg/kg/injection, schedule: Q01DX009 (ip), vehicle: saline) is 102 % of control.
Consider `CCN(CC)CCNc1ccc(CO)c2oc3cc(Cl)ccc3c(=O)c12`, for which the T/C is 94 % of control (dose: 31.25 mg/kg/injection, schedule: Q01DX009 (ip), vehicle: Klucel (hydroxypropylcellulose) (HPC)); 100 % of control (dose: 62.5 mg/kg/injection, schedule: Q01DX009 (ip), vehicle: Klucel (hydroxypropylcellulose) (HPC)); 96 % of control (dose: 125.0 mg/kg/injection, schedule: Q01DX009 (ip), vehicle: Klucel (hydroxypropylcellulose) (HPC)).
As to `NC1CCC(CC2CCCCC2)CC1` (stereo not drawn), the T/C by setting is: (dose: 25.0 mg/kg/injection, schedule: Q01DX009 (ip), vehicle: Klucel (hydroxypropylcellulose) (HPC)) 96 % of control; (dose: 25.0 mg/kg/injection, schedule: Q04DX003 (ip), vehicle: Klucel (hydroxypropylcellulose) (HPC)) 95 % of control; (dose: 50.0 mg/kg/injection, schedule: Q01DX009 (ip), vehicle: Klucel (hydroxypropylcellulose) (HPC)) 98 % of control; (dose: 50.0 mg/kg/injection, schedule: Q04DX003 (ip), vehicle: Klucel (hydroxypropylcellulose) (HPC)) 100 % of control; (dose: 100.0 mg/kg/injection, schedule: Q04DX003 (ip), vehicle: Klucel (hydroxypropylcellulose) (HPC)) 91 % of control.
Turning to `CS(=O)(=O)OCCN(CCOS(C)(=O)=O)c1ccc(C=Nc2ccc(-c3csc(Cc4ccccc4)n3)cc2)cc1`, the T/C runs as follows: (dose: 20.0 mg/kg/injection, schedule: Q04DX003 (ip), vehicle: Klucel (hydroxypropylcellulose) (HPC)) 122 % of control; (dose: 30.0 mg/kg/injection, schedule: Q04DX003 (ip), vehicle: Klucel (hydroxypropylcellulose) (HPC)) 98 % of control; (dose: 66.0 mg/kg/injection, schedule: Q04DX003 (ip), vehicle: Klucel (hydroxypropylcellulose) (HPC)) 152 % of control; (dose: 150.0 mg/kg/injection, schedule: Q04DX003 (ip), vehicle: Klucel (hydroxypropylcellulose) (HPC)) 107 % of control.
Consider `Cc1nc(N)nc(N)c1[N+](=O)[O-]`, for which the T/C runs as follows: (dose: 65.0 mg/kg/injection, schedule: Q01DX Z (oral), vehicle: methylcellulose (MC)) 105 % of control; (dose: 125.0 mg/kg/injection, schedule: Q01DX Z (oral), vehicle: methylcellulose (MC)) 100 % of control; (dose: 250.0 mg/kg/injection, schedule: Q01DX Z (oral), vehicle: methylcellulose (MC)) 100 % of control.
On to `COc1ccc(/C=N/NC(=O)c2ccc(Cl)c(Cl)c2)cc1`, for which the T/C under setting [13] is 91 % of control, the T/C under setting [14] is 100 % of control and the T/C under setting [15] is 90 % of control.
Consider `N#Cc1ccccc1COCc1ccccc1`, for which the T/C runs as follows: under setting [13], 102 % of control; under setting [14], 98 % of control; under setting [15], 95 % of control.
In the case of `O=C(COc1ccc(Cl)c(Cl)c1)NCc1ccc[n+](Cc2ccc(S(=O)(=O)F)cc2Cl)c1`, the T/C (dose: 25.0 mg/kg/injection, schedule: Q04DX003 (ip), vehicle: saline with Tween-80) was 109 % of control; the T/C (dose: 50.0 mg/kg/injection, schedule: Q04DX003 (ip), vehicle: saline with Tween-80) is 101 % of control; the T/C under setting [10] is 86 % of control.
On to `COc1cc(C=Nc2cccc(C(F)(F)F)c2)ccc1OC(=O)c1ccccc1`, for which the T/C under setting [13] is 86 % of control, the T/C under setting [14] is 94 % of control and the T/C under setting [15] is 91 % of control.
`c1ccc(N2N=NC3C4CC(C5COCC54)C32)cc1` (stereo not drawn): the T/C is, setting by setting: under setting [4], 97 % of control; under setting [5], 104 % of control; under setting [14], 121 % of control; under setting [6], 109 % of control.
In the case of `O=C(Nc1ccccc1O)C(O)C(O)C(O)C(O)CO` (stereo not drawn), the T/C under setting [7] is 87 % of control, the T/C under setting [8] is 97 % of control and the T/C under setting [9] was 91 % of control.
